Read-outs that look alike come from different tables or passages of the source. Where a SMILES comes first, the peptide text is derived from it. The star is where a group is joined. Cbz = O=C(OCc1ccccc1)*
What was measured:
[1] = tested on: MDA-MB-231 breast cancer line; test: cells; format: cell-based, human
Method: PND was added to cultures of the MDA-MB-231 breast cancer line 24 hours after the cells were treated with a selection of known commercial chemotherapeutic drugs, before the cells were analyzed for cell death. Each of the drugs are known to have serious side-effects at the does commonly administered for the treatment of cancer. The dose of the chemotherapeutic drugs was reduced to one half, one fourth, one eighth, and one sixteenth of the initial dose; while the dose of PND was kept the same. The effect of these combinational therapies was measured by the concentration of each compound needed to be cytotoxic to at least 50 percent of cancer cells (CC50).

[2] = tested on: plasmid dsDNA (pCMV-dR8.91); test: DNA mobility-shift assay (agarose gel); format: binding; parameters: DNA mobility shift: unit of the concentration uncertain
Method: Typically, an experimental compound intercalating or binding to double stranded (ds) DNA will increase the molecular mass resulting from forming complexes, decreasing its electrophoretic mobility in an agarose gel, as compared with untreated dsDNA. To explore the potential interaction between PND and dsDNA, a DNA mobility-shift assay was conducted. Each reaction mixture was of 10 μl total volume in PBS pH 7.4. Both PND (Sigma-Aldrich) and quinacrine (Sigma-Aldrich) were tested with three individual concentrations of 1 μM, 0.5 μM or 0.25 μM, respectively. To each reaction mixture, 100 ng of plasmid dsDNA (pCMV-dR8.91; Addgene, Cambridge, MA) was added and the mixture was then incubated for 30 min at 37° C. and stopped by adding 2 μl of 6× gel loading buffer and placed on ice. The potential binding interaction between both PND and quinacrine with dsDNA were analyzed by using 1% (w/v) agarose-gel electrophoresis dissolved in TAE buffer (0.04 M Tris base, 0.04 M acetate and 0.001 M EDTA) pH 8.0. To stain the dsDNA complexes, Ethidium bromide was added to the agarose gel throughout the electrophoresis process at a concentration of 0.5 μg/ml. DNA migration was visualized by utilizing a gel documentation system and pictures were captured by using a UV-light transilluminator (Alpha Innotech, San Leandro, CA). The well-known DNA intercalator fluorescent compound, propidium iodide (PI), was included as positive controls at 1 μg per reaction. As a control, untreated plasmid DNA was included to determine its normal electrophoretic mobility in the gel.

HL-60 cells = test: Phosphatidylserine externalization, annexin V-FITC/PI flow cytometry; format: cell-based, human; conditions: positive control, 24 h
Method: (§1) To determine whether cell death induced by PND was occurring through apoptosis or necrosis, MDA-MB-231 and HL-60 cells were stained with annexin V-FITC and PI and monitored via flow cytometry. Cells were seeded in 24-well plates at a density of 100,000 for adherent MDA-MB-231 and 200,000 HL-60 cells in 1 ml of culture media. After overnight incubation, cells were treated with PND, and incubated for an additional 24 h. For MDA-MB-231 cells, unattached cells were harvested in an ice-cold tube, while adhered cells were detached by using HyQtase (Thermo Fisher) and incubated for around 5 min at 37° C. Both unattached and detached cells harvested from each individual well were washed with ice-cold PBS and centrifuged at 260×g for 5 min. HL-60 were centrifuged directly after the incubation period as they grow in suspension. Cells were then stained with a mixture of annexin V-FITC and PI in 100 μl of binding buffer and incubated on ice in the dark for 15 minutes, following the manufacturer's instructions (Beckman Coulter). Lastly, the cells were resuspended by the addition of 400 μl of ice-cold binding buffer and analysed by flow cytometry (Cytomics FC500; Beckman Coulter). For this series of experiments, cells treated with PBS, as solvent control; treated with H2O2, as a positive control of cytotoxicity; and untreated were included and processed in parallel. For each sample, 10,000 events/cells were collected and analysed using CXP software (Beckman Coulter). Both the experimental samples and their controls were processed similarly and assessed in triplicate. The sum of both early and late stages of apoptosis was calculated to obtain the total percentage of apoptotic cells.

MDA-MB-231 cells = test: as above; format: cell-based, human; conditions: positive control, 24 h
Method: as §1

[3] = Homo sapiens, MDA-MB-231, read-out: initial dose (CC50)

CC(C)C[C@H](NC(=O)[C@H](Cc1ccccc1)NC(=O)c1cnccn1)B(O)O [bortezomib]
CC50 [1, 3]: 10 nM

CC(C)C[C@@H](C=O)NC(=O)[C@H](CC(C)C)NC(=O)[C@H](CC(C)C)NC(=O)OCc1ccccc1 [MG132] (Cbz-Leu-Leu-Leu-aldehyde)
CC50 [1, 3]: 500 nM

Nc1ccn([C@@H]2O[C@H](CO)[C@@H](O)C2(F)F)c(=O)n1 [gemcitabin]
CC50 [1, 3]: 440 nM

CCN(CC)CCCC(C)Nc1c2ccc(Cl)cc2nc2ccc(OC)cc12 (stereo not shown) [quinacrine]
DNA mobility shift ([2]; 0.5 and 0.25 mM, 100 ng plasmid DNA): clear retardation mobility of the DNA
DNA mobility shift ([2]; 1 (unit uncertain), 100 ng plasmid DNA, 30 min 37° C.): maximum retardation of DNA mobility
DNA degradation ([2]; fragments smaller than free supercoiled DNA): did not exhibit any DNA degradation activity

CC[N+](C)(CC)CCC[n+]1c(-c2ccccc2)c2cc(N)ccc2c2ccc(N)cc21.[I-].[I-] [PI, propidium iodide]
DNA mobility shift ([2]; positive control, 1 μg per reaction): provoked retardation of the DNA mobility

OO [H2O2, hydrogen peroxide]
mode of cytotoxic effect (apoptosis or necrosis) (HL-60 cells): necrosis
mode of cytotoxic effect (apoptosis or necrosis) (MDA-MB-231 cells): apoptosis

N.N.[Cl][Pt][Cl] [cisplatin]
CC50 [1]: 95400 nM

Reference: patent publication US12201626B2, “Bifunctional compositions for the treatment of cancer” (ARMACEUTICA, INC., priority 2018, dated 2025)
